Holding throughout (assay): DTP human tumour cell line panel, 48 h
Test [1] deals with EKVX NSCLC.
The subject of test [2] is HCC-2998 colon.
Test [3] has as its system KM12 colon.
The test system of test [4] is NCI-H460 lung.
The subject of test [5] is SNB-75 CNS.
For test [6], the system named is UACC-257 melanoma.
The subject of test [7] is SF-268 CNS.
The test system of test [8] is MOLT-4 leukemia.

Usually TGI stands for the concentration giving total growth inhibition.

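96-well plates; 48 h exposure; 5 concentrations. Endpoints by linear interpolation between flanking doses. Not reached: highest tested concentration assigned. At the TGI there is no net growth.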 Where a SMILES comes first, the peptide text is derived from it. The star is where a group is joined. OSu = O=C1CCC(=O)N1O* Bounds are passed on as bounds.

Consider `CC(=O)NC1C(OCc2ccccc2)OC(CO)C(O)C1OCC(=O)N[C@@H](C)C(=O)N[C@H](CCC(=O)NCCNc1ccc([N+](=O)[O-])c2[nH]c3ccccc3c(=O)c12)C(N)=O` (stereo not given in full), for which the TGI is 60.5 µM in test [1]; 36 µM in test [2]; above 100 µM in test [3]; 30.7 µM in test [4]; 61.5 µM in test [5]; 54.3 µM in test [6].

As to `C/C(O)=C(\C=NC(=S)c1ccncc1)C(=O)Nc1ccccc1C`, the TGI in test [1], in test [2], in test [3], in test [4], in test [7] and in test [5] was above 100 µM each time. Moreover, the TGI in test [6] was above 100 µM.

In the case of `NS(=O)(=O)c1nnc(NS(=O)(=O)c2ccc([N+](=O)[O-])cc2)s1`, the TGI in test [1], in test [2], in test [3], in test [8], in test [4] and in test [7] was above 100 µM in each case. The compound also returned a TGI in test [5] above 100 µM.

For the compound `O=C1/C(=C/c2ccccc2)CCCc2ccccc21`, the TGI in test [1] was 37.3 µM; in test [3], 35.2 µM; in test [8], 48.1 µM; in test [4], 31.4 µM; in test [7], 32.6 µM; in test [5], above 100 µM. Besides, the TGI in test [6] was determined as 33.3 µM.

Turning to `COC(=O)CNC(=O)CCC(C)[C@H]1CCC2C3C(C[C@H](OC(C)=O)[C@@]21C)[C@@]1(C)CCC2(C[C@H]1C[C@H]3OC(C)=O)OOC1(CCCCC1)OO2` (stereo not given in full), the TGI in test [1] is 3.74 µM; in test [2], 5.98 µM; in test [3] it was 3.64 µM; in test [8], 11.9 µM; in test [4], 3.63 µM; in test [7], 3.59 µM. For the same compound, the values for the TGI in test [5] and in test [6] were 5.3 µM and 20.1 µM, respectively.

Turning to `C/C(O[Si](C(C)C)(C(C)C)C(C)C)=C(\C)C(=O)N(C)c1ccccc1Cl`, the TGI in test [1], in test [3], in test [8], in test [4], in test [7] and in test [5] was above 100 µM in each case. In addition, the concentration for total growth inhibition (TGI) in test [6] was above 100 µM.

In the case of `C#CC(O)/C=C/C(O)CCCC(O)CC#CC(O)C#CCCCCC(O)/C=C/CCCC(O)/C=C/CCCCCCCCCCCCCC(O)C(O)C#CC(=O)O` (stereo not given), the TGI in test [1], in test [2], in test [3], in test [8], in test [4] and in test [7] was above 25 µM in each case. Moreover, the TGI in test [5] and in test [6] was above 25 µM each time.

Turning to `C#C[C@]1(O)CC[C@H]2[C@@H]3CCC4=C/C(=N/OC(=O)c5cccc6c(=O)c7ccccc7[nH]c56)CCC4[C@H]3CC[C@@]21CC` (stereo not given in full), the TGI was above 100 µM in test [1]; above 90.9 µM in test [2]; above 100 µM in test [3]; above 69.2 µM in test [8]; above 100 µM in test [4]; above 100 µM in test [7]. In addition, the TGI is above 100 µM in test [5] and above 88.1 µM in test [6].

On to `COc1ccc2c(c1OC)C(=O)O[C@@H]2[C@H]1c2c(cc3c(c2OC)OCO3)CCN1C`, for which the TGI was above 100 µM in test [2]; above 100 µM in test [3]; above 100 µM in test [8]; above 100 µM in test [4]; above 100 µM in test [7]; 34 µM in test [5]. The compound further displayed a TGI in test [6] above 100 µM.

Regarding `O=P1(Cc2ccccc2)c2ccccc2-c2ccccc21`, the TGI is above 73.1 µM in test [1]; 16.7 µM in test [2]; 10.3 µM in test [3]; 30.5 µM in test [8]; 48.3 µM in test [4]; above 100 µM in test [7]. Further, the TGI is above 50.7 µM in test [5] and 16 µM in test [6].

Turning to `O=C1C(Cl)=C(NCCF)C(=O)c2ncccc21`, the TGI amounted to 3.08 µM in test [1]; 2.71 µM in test [2]; 3.38 µM in test [3]; 3.72 µM in test [8]; 3.73 µM in test [4]; 4.22 µM in test [7]. The TGI in test [5] came out at 2.6 µM; in test [6], 3.03 µM.

With `O=C1NC(=Nc2ccccc2Cl)N/C1=C\c1ccc(Cl)cc1Cl`, the TGI in test [1], in test [2], in test [3], in test [8], in test [4] and in test [7] was above 100 µM throughout. The results for the TGI in test [5] and in test [6] were 93 µM and above 100 µM, respectively.

On to `COc1ccc2oc(C(=O)N3CC(CCl)c4ccc(N)cc43)cc2c1` (stereo not given), for which the TGI came to 4 µM in test [1]; 1.19 µM in test [2]; 1.45 µM in test [3]; 5.44 µM in test [8]; 1.74 µM in test [4]; 9.61 µM in test [7]. Further, the results for the TGI in test [5] and in test [6] were 3.23 µM and 6.57 µM, respectively.

With `CCOC1CCN(C(=O)c2ccccc2)O1` (stereo not given), the TGI in test [1], in test [2], in test [8], in test [4], in test [7] and in test [5] was above 10 µM each time. In test [6], this compound gave a TGI above 10 µM.

As to `CNC(=S)/C(C#N)=C(\N)N1CCCC1`, the TGI in test [1], in test [2], in test [3], in test [8], in test [4] and in test [7] was above 100 µM in each case.

In the case of `C[n+]1ccccc1/C1=c2\cc/c([nH]2)=C(\c2cccc[n+]2C)C2=N/C(=C(/c3cccc[n+]3C)C3C=CC(N3)/C(c3cccc[n+]3C)=C3/C=CC1=N3)C=C2`, the TGI in test [1], in test [2], in test [3], in test [8], in test [4] and in test [7] was above 100 µM throughout. In test [6], this compound had a TGI above 100 µM.

On to `CCOC(=O)C1(C(=O)OCC)C=C(c2ccccc2)N(C2OC(COC(C)=O)C(OC(C)=O)C(OC(C)=O)C2OC(C)=O)C1=S` (stereo not given), for which the TGI in test [1], in test [2], in test [3], in test [8], in test [4] and in test [7] was above 100 µM in each case. In addition, in test [6], the TGI is above 100 µM.

With `CC12CCC(CC1(Cl)Cl)C2` (stereo not given), the TGI in test [1], in test [3], in test [8], in test [4], in test [7] and in test [5] was above 100 µM throughout. The compound further had a TGI in test [6] above 100 µM.

Take `Cc1ccc(S(=O)(=O)NC(=O)NC(CCC(N)=O)C(=O)O)cc1` (stereo not given): the TGI in test [3], in test [8], in test [4], in test [7], in test [5] and in test [6] was above 100 µM in each case.

Consider `CCC(=O)Nc1ccc(NCC(=O)Nc2ccc(OC)cc2)cc1`, for which the concentration for total growth inhibition (TGI) is 70.7 µM in test [1]; 35.5 µM in test [2]; above 100 µM in test [3]; above 100 µM in test [8]; 39.7 µM in test [7]; 34.3 µM in test [5]. This compound registered a TGI in test [6] of 64.2 µM.

Consider `NCCCCC(NC(=O)C(N)Cc1ccc(O)cc1)C(=O)NC(Cc1ccc(O)cc1)C(=O)NC(CCCCN)C(=O)ON1C(=O)CCC1=O` (stereo not given) (H-YKYK-OSu; configuration not given here), for which the TGI in test [1], in test [2], in test [3], in test [8], in test [4] and in test [5] was above 100 µM each time. In test [6], this compound came in with a TGI above 100 µM.

Regarding `O=C(NC1(C(=O)O)CCCC1)c1ccccc1`, the TGI in test [1], in test [2], in test [3], in test [8], in test [4] and in test [7] was above 100 µM throughout. In test [6], this compound showed a TGI above 100 µM.

Consider `Cc1cc(C)nc(NS(=O)(=O)c2ccc(NC(=O)c3cc([N+](=O)[O-])cc([N+](=O)[O-])c3)cc2)n1`, for which the TGI is above 100 µM in test [3]; 13.5 µM in test [8]; above 100 µM in test [4]; above 100 µM in test [7]; above 100 µM in test [5]; above 100 µM in test [6].

Take `NC(N)=N/N=C/c1c(-c2cc([N+](=O)[O-])c(Cl)cc2Cl)nc2n1CCS2`: the TGI in test [1] was above 100 µM; in test [2] it was 5.4 µM; in test [3], above 100 µM; in test [8], 58.6 µM; in test [4], above 100 µM; in test [7], above 100 µM. This compound gave a TGI in test [6] of 54.2 µM.

Take `C=CCCC(=O)C(=[N+]=[N-])C(=O)CCC(=O)c1ccccc1`: the TGI in test [1], in test [8], in test [4], in test [7], in test [5] and in test [6] was above 10 µM in each case.

On to `C=CCN(CCN(CC=C)S(=O)(=O)c1ccc(C)cc1)S(=O)(=O)c1ccc(C)cc1`, for which the total growth inhibition concentration (TGI) in test [2], in test [3], in test [8], in test [4], in test [7] and in test [5] was above 100 µM in each case. Besides, the TGI in test [6] was above 100 µM.

Take `O=c1[nH]nc(-c2ccc(F)cc2)cc1-c1ccccc1`: the TGI in test [1], in test [2], in test [3], in test [8], in test [4] and in test [7] was above 100 µM throughout. In addition, the TGI in test [6] is above 100 µM.

Consider `COc1ccc(CCN2C(=O)CC34C=CC(CC3C2=O)O4)cc1OC` (stereo not given), for which the TGI in test [1], in test [2], in test [3], in test [8] and in test [6] was above 100 µM throughout.

As to `CN(C)N=Nc1ccc2[nH]c(=O)[nH]c2c1`, the total growth inhibition concentration (TGI) in test [1], in test [2], in test [3], in test [4], in test [7] and in test [5] was above 100 µM throughout. In test [6], this compound came in with a TGI above 100 µM.

On to `CC(=O)O[C@H]1C(=O)[C@@]2(C)[C@H]([C@H](OC(=O)c3ccccc3)[C@]3(O)C[C@H](OC(=O)[C@H](O)[C@@H](NC(=O)c4ccc(N(C)C)cc4)c4ccccc4)C(C)=C1C3(C)C)[C@]1(OC(C)=O)CO[C@@H]1C[C@@H]2O`, for which the TGI in test [1] is above 50 µM; in test [3], above 50 µM; in test [8] it was above 21.9 µM; in test [7] it was above 50 µM; in test [5] it was above 50 µM.

As to `C=CCn1c(-c2ccc(Cl)cc2)csc1=Nc1ccccc1OC`, the TGI in test [2] is above 100 µM; in test [3] it was above 100 µM; in test [8] it was 14.9 µM; in test [4] it was above 100 µM; in test [7], above 100 µM; in test [5], above 94.3 µM. This compound also showed a TGI in test [6] of 29.7 µM.

On to `CC1(C)OC2OC(COC(=O)c3ccc(C#N)cc3)C3OC(C)(C)OC3C2O1` (stereo not given), for which the TGI in test [1], in test [2], in test [3], in test [8], in test [7] and in test [5] was above 75 µM each time. The compound also gave a TGI in test [6] above 75 µM.

As to `CCN(CC)CCN1C(=O)C(=O)N(c2cccc3ccccc23)C1=O`, the TGI in test [1], in test [2], in test [3], in test [8], in test [4] and in test [7] was above 10 µM each time. Moreover, in test [5], the TGI is above 10 µM.

With `CCOc1cc(-c2nc3cc(F)ccc3s2)ccc1O`, the TGI in test [1] came to 24.4 µM; in test [2], 41.6 µM; in test [3], 36 µM; in test [4], 34.9 µM; in test [7], 31.2 µM; in test [6] it was 31 µM.

Source of the values: PubChem BioAssay (NCI).
